# Laboratory results: patent publication US20210330611A1, “THERAPY FOR NEUROLOGICAL DISEASES/DISORDERS” (priority 2020, published 2021)
# pIC50: −log10 of the molar value. Like-named read-outs stand apart in the source and are kept apart here.
# What was measured:
# [1] = test system: primary rat microglia; assay: Cell toxicity (dead cells, size <150 μm2) in LPS assay; settings: for IC50: read-out: Cell Toxicity IC50 (uM) [LPS assay], LPS assay; for LPS % cell toxicity: primary microglia HTS, LPS stimulation, decreased size (<150 μm^2) as marker of toxicity
# [2] = test system: fibrin-induced microglia activation; assay: Image-based assay of fibrin-induced microglia activation (HTS and dose response); type: cell-based, rat; settings: for IC50 / inhibition at 10 µM / pIC50: Rattus norvegicus, Microglia; for IC50: read-out: Fibrin IC50 (uM) (Suppl. Table 7); for inhibition at 10 µM: primary microglia HTS, fibrin stimulation, read-out: Fibrin % inhibition; for pIC50: read-out: Fibrin IC50
# [3] = in vitro; settings: rat
# [4] = in vitro; settings: rat, Cell Toxicity IC50 (uM) [cFib assay]
# [5] = test system: LPS-induced microglia activation; assay: Image-based assay of LPS-induced microglia activation (HTS and dose response); type: cell-based, rat; settings: Rattus norvegicus, Microglia; for pIC50: read-out: LPS IC50; for inhibition at 10 µM: primary microglia HTS, LPS stimulation, read-out: LPS % inhibition; for IC50: read-out: LPS IC50 (uM) (Suppl. Table 7)
# [6] = test system: fibrin- and LPS-induced microglia activation; assay: cells; type: cell-based, rat; settings: for inhibition at 10 µM: Rattus norvegicus
# [7] = test system: primary rat microglia; settings: rat
# [8] = test system: primary rat microglia; assay: Cell toxicity (dead cells, size <150 μm2) in coated fibrin (cFib) assay; settings: primary microglia HTS;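 on Fibrin % cell toxicity: share of dead cells sized under 150 µm2 at 10 µM in fibrin-stimulated microglia HTS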
# [9] = increased cell size (>800 μm^2) as marker of activation
# [10] = 48 h, Table 1, dose response 0.001-20 μM, triplicates, primary rat microglia, 48 h
# [11] = 48 h, increased cell size (>800 μm^2) as marker of activation
# [12] = LPS-induced microglia activation, dose response
# [13] = dose response, LPS-induced microglia activation
# [14] = HTS of 1907 compounds, quadrant by fibrin and LPS inhibition
# [15] = Microglia, Table 3, read-out: Cherry-picked Hit (Suppl. Table 7)
# [16] = Microglia, HTS hit classification, read-out: Hit
# [17] = quadrant by fibrin and LPS inhibition in HTS of 1907 compounds
# [18] = dose response, fibrin-induced microglia activation
# [19] = fibrin-induced microglia activation, dose response
# [20] = quadrant by fibrin and LPS inhibition, HTS at 10 μM
# [21] = fibrin assay, dead cells (size <150 μm2)
# [22] = fibrin stimulation, decreased size (<150 μm^2) as marker of toxicity
SMILES,IC50 [1] [µM],IC50 ([2]; Table 3) [µM],"inhibition at 10 µM [2, 9] [%]",pIC50 [3],IC50 ([4]; Table 3) [µM],IC50 ([4]; cFib assay) [µM],"pIC50 [5, 10]","inhibition at 10 µM [5, 11] [%]","IC50 [5, 12] [µM]",IC50 ([5]; Table 3) [µM],"pIC50 [5, 13]","Quadrant (FIG. 5b) [6, 14]","inhibition at 10 µM [6, 15] [%]","inhibition at 10 µM [6, 16] [%]","Quadrant (FIG. 5b) ([6]; Table 1, screen at 10 μM)","Quadrant (FIG. 5b) ([6]; Table 3, screen at 10 μM)","Quadrant (FIG. 5b) [6, 17]",LPS % cell toxicity [7] [%],LPS % cell toxicity [1] [%],"pIC50 [2, 10]",further results
"CC(=O)O[C@@]12CO[C@@H]1C[C@H](O)[C@@]1(C)C(=O)[C@H](O)C3=C(C)[C@@H](OC(=O)[C@H](O)[C@@H](NC(=O)OC(C)(C)C)c4ccccc4)C[C@@](O)([C@@H](OC(=O)c4ccccc4)[C@H]21)C3(C)C [Docetaxel, reference compound]",> 20,0.002,64,< 4.70,> 20,> 20,< 4.70,32,> 20,> 20,< 4.70,Q3,> 50,> 50,Q3,Q3,Q3,1,,,"IC50 ([1]; Table 6): > 20 µM; IC50 ([2]; Table 6): 0.002 µM; Fibrin Selectivity (LOG10) ([2]; fibrin vs LPS, LOG10, Table 6): 3.99; Fibrin Selectivity ([2]; fibrin vs LPS, Table 6): 9814; IC50 ([4]; cFib assay, Table 6): > 20 µM; IC50 ([5]; Table 6): > 20 µM; Quadrant (FIG. 5b) ([6]; microglia HTS, Table 6): Q3"
"C[C@H]1[C@H](OC(=O)CCC(=O)O)O[C@@H]2O[C@@]3(C)CC[C@H]4[C@H](C)CC[C@@H]1[C@@]24OO3 [Artesunate, reference compound]",> 20,7,63,< 4.70,> 20,> 20,< 4.70,20,> 20,> 20,< 4.70,Q3,> 50,> 50,Q3,Q3,Q3,0,0,5.15,"Fibrin Selectivity [2]: 3; Fibrin Selectivity (LOG10) [2]: 0.45; pIC50 [2, 18]: 5.15; IC50 [2, 19]: 7 µM; inhibition at 10 µM ([2]; compounds at 10 μM): 47%; inhibition at 10 µM ([5]; compounds at 10 μM): 7%; Quadrant (FIG. 5b) [6, 20]: Q4; Fibrin % cell toxicity [8, 21]: 1%; Fibrin % cell toxicity [8, 22]: 1%"
"CCN1CCCC1CNC(=O)c1cc(S(=O)(=O)CC)c(N)cc1OC (stereo not shown) [Amisulpride, reference compound]",,,54,< 4.70,,> 20,< 4.70,31,> 20,,< 4.70,Q3,,> 50,Q3,,Q3,0,1,4.70,"pIC50 [2, 18]: 4.70; IC50 [2, 19]: 20 µM; inhibition at 10 µM ([2]; compounds at 10 μM): -5%; inhibition at 10 µM ([5]; compounds at 10 μM): 12%; inhibition at 10 µM ([6]; hit classification in microglia HTS, read-out: Cherry-picked Hit (Suppl. Table 7)): > 50%; Quadrant (FIG. 5b) [6, 20]: Q4; Fibrin % cell toxicity [8, 21]: 1%; Fibrin % cell toxicity [8, 22]: 2%"
